US11091471B2, “Isoxazolyl ether derivatives as GABAA α5 PAM” (Hoffmann-La Roche Inc., priority 2016, dated 2021)

Legend:
h-GABA-A α5β3γ2 [1] = biological target: T1, h-GABA-A α5β3γ2 (Homo sapiens (Human), UniProt P18507+P31644); experiment: [3H]flumazenil competition binding assay, membranes of HEK293 cells expressing human GABAA receptors; conditions: Table 1, displacement of [3H]-Flumazenil 0.5 nM, mean of two determinations
Procedure: The affinity of compounds at GABAA receptor subtypes was measured by competition for [3H]flumazenil (85 Ci/mmol; Roche) binding to HEK293 cells expressing rat (stably transfected) or human (transiently transfected) receptors of composition α1β3γ2, α2β3γ2, α3β3γ2 and α5β3γ2.
Cell pellets were suspended in Krebs-tris buffer (4.8 mM KCl, 1.2 mM CaCl2, 1.2 mM MgCl2, 120 mM NaCl, 15 mM Tris; pH 7.5; binding assay buffer), homogenized by polytron for ca. 20 sec on ice and centrifuged for 60 min at 4° C. (50000 g; Sorvall, rotor: SM24=20000 rpm). The cell pellets were resuspended in Krebs-tris buffer and homogenized by polytron for ca. 15 sec on ice. Protein was measured (Bradford method, Bio-Rad) and aliquots of 1 mL were prepared and stored at 80° C.
Assays were incubated to equilibrium for 1 hour at 4° C. and harvested onto GF/C uni-filters (Packard) by filtration using a Packard harvester and washing with ice-cold wash buffer (50 mM Tris; pH 7.5). After drying, filter-retained radioactivity was detected by liquid scintillation counting. Ki values were calculated using Excel-Fit (Microsoft) and are the means of two determinations.

h-GABA-A α5β3γ2 [2] = biological target: T1, h-GABA-A α5β3γ2; experiment: Two-electrode voltage clamp electrophysiology in Xenopus oocytes expressing GABAA receptors, modulation of GABA EC20 current; type: cell-based
Procedure: Xenopus laevis oocytes at maturation stages V-VI were used for the expression of cloned mRNA encoding GABAA receptor subunits. Oocytes ready for RNA micro-injection were bought from Ecocyte, Castrop-Rauxel, Germany and stored in modified Barth's medium (composition in mM: NaCl 88, KCl 1, NaHCO3 2.4, HEPES 10, MgSO4 0.82, CaNO3 0.33, CaCl2 0.33, pH=7.5) at 20° C. until the experiment.
Oocytes were plated in 96-well plates to be used in an automated instrument (Robo-ocyte, MultiChannelSystems, Reutlingen, Germany) for microinjection and electrophysiological recordings. Approximately 50 nl of an aqueous solution containing the RNA transcripts for the subunits of the desired GABAA receptor was injected into each oocyte.
Electrophysiological experiments were performed on days 3 to 5 after the micro-injection of mRNA. During the experiment the oocytes were constantly superfused by a solution containing (in mM) NaCl 90, KCl 1, HEPES 5, MgCl2 1, CaCl2 1 (pH 7.4). Oocytes were impaled by two glass microelectrodes (resistance: 0.4 MΩ) which were filled with a solution containing KCl 1M+K-acetate 1.5 M and voltage-clamped to −80 mV. The recordings were performed at room temperature using the Roboocyte two-electrode voltage clamp system (Multichannelsystem). After an initial equilibration period of 1.5 min GABA was added for 1.5 min at a concentration evoking approximately 20% of a maximal current response (EC20). After another rest interval of 2.5 min GABA was again added evoking a response of similar amplitude and shape. […] Current traces were recorded at a digitization rate of 10 Hz during and shortly before and after the GABA application.
Each compound and concentration was tested on at least 3 oocytes.
For the analysis, the digitized current traces of the first and second GABA response were superimposed and, if necessary, rescaled to equal maximal amplitudes. The ratio between the two responses during the time interval of test compound application was calculated point by point. The extremum of the resulting “ratio trace” was taken as the efficacy (“Fold increase”) of the compound expressed as “% modulation of GABA EC20” (100*(Fold increase−1)).

[3] = Table 1, GABA at EC20, test compound at approx. 30 fold its Ki, Xenopus oocytes
[4] = Table 2, reference compounds, % modulation of GABA EC20
[5] = Table 2, reference compounds, GABAA α5β3γ2 overexpressing oocytes
[6] = Table 1, % modulation of GABA EC20 = 100*(Fold increase−1)

Row | SMILES | Ki (h-GABA-A α5β3γ2 [1]) [nM] | Fold increase h-GABA-A α5β3γ2 oocyte (h-GABA-A α5β3γ2 [2]; [3]) | also measured
1 | Cc1ccc(-c2noc(C)c2COc2cc3c(cn2)C(=O)N(C2CCS(=O)(=O)CC2)C3)cn1 [Example 91, 2-(1,1-dioxothian-4-yl)-6-((5-methyl-3-(6-methylpyridin-3-yl)-1,2-oxazol-4-yl)methoxy)-1H-pyrrolo[3,4-c]pyridin-3-one] | – | 2.4 | –
2 | Cc1ccc(-c2noc(C)c2COc2cc3c(cn2)C(=O)N(C)C3)cn1 [Example 10, 2-methyl-6-((5-methyl-3-(6-methylpyridin-3-yl)isoxazol-4-yl)methoxy)-1H-pyrrolo[3,4-c]pyridin-3(2H)-one] | – | 1.8 | –
3 | COC(=O)c1cc2c(cn1)[nH]c1ccccc12 [β-CCM, reference compound] | – | – | inhibition of the GABA-evoked current (h-GABA-A α5β3γ2 [2]; positive control (NAM) at a maximally effective concentration): ~50%; Fold increase (h-GABA-A α5β3γ2 [2]; positive control at a maximally effective concentration, 3-6 oocytes per 96-well plate): ~0.5
4 | Cc1ccc(-c2noc(C)c2COc2ccc(C(=O)NC3CCOCC3)cn2)cc1 [RO-251, reference compound] | – | – | Efficacy (GABA) % (h-GABA-A α5β3γ2 [2]; [4]): −18%; Fold increase h-GABA-A α5β3γ2 oocyte (h-GABA-A α5β3γ2 [2]; [5]): 0.82
5 | Cc1ccc(-c2noc(C)c2COc2cnc(C(=O)NC3CCS(=O)(=O)CC3)cn2)cn1 [Example 72, N-(1,1-dioxothian-4-yl)-5-((5-methyl-3-(6-methyl-3-pyridyl)isoxazol-4-yl)methoxy)pyrazine-2-carboxamide] | – | 2.3 | –
6 | Cc1onc(-c2cccnc2)c1COc1ccc(C(=O)NC2CCOCC2)nn1 [RE-A, 6-((5-methyl-3-(3-pyridyl)isoxazol-4-yl)methoxy)-N-tetrahydropyran-4-yl-pyridazine-3-carboxamide, reference compound] | – | – | Efficacy (GABA) % (h-GABA-A α5β3γ2 [2]; [4]): −3%; Fold increase h-GABA-A α5β3γ2 oocyte (h-GABA-A α5β3γ2 [2]; [5]): 0.97
7 | Cc1ccc(-c2noc(C)c2COc2ccc(C(=O)N3C4COCC3C4)nn2)cn1 [Example 157, 3-oxa-6-azabicyclo[3.1.1]heptan-6-yl(6-((5-methyl-3-(6-methylpyridin-3-yl)isoxazol-4-yl)methoxy)pyridazin-3-yl)methanone] | – | – | Efficacy (GABA) % (h-GABA-A α5β3γ2 [2]; [6]): 76%
8 | CCC[C@@H](CO)NC(=O)c1ccc(OCc2c(-c3ccc(C)nc3)noc2C)nc1 [Example 4, (S)—N-(1-hydroxypentan-2-yl)-6-((5-methyl-3-(6-methylpyridin-3-yl)isoxazol-4-yl)methoxy)nicotinamide] | – | 2.5 | –
9 | Cc1onc(-c2ccc(Cl)cn2)c1COc1ccc(C(=O)NC2CCOCC2)cn1 [RO-301, reference compound] | – | – | Efficacy (GABA) % (h-GABA-A α5β3γ2 [2]; [4]): −18%; Fold increase h-GABA-A α5β3γ2 oocyte (h-GABA-A α5β3γ2 [2]; [5]): 0.82
10 | Cc1ccc(-c2noc(C)c2COc2ccc(C(=O)N3CCC(F)(F)CC3)nn2)cn1 [Example 53, (4,4-difluoropiperidin-1-yl)(6-((5-methyl-3-(6-methylpyridin-3-yl)isoxazol-4-yl)methoxy)pyridazin-3-yl)methanone] | – | 1.8 | –
11 | Cc1onc(-c2ccc(Cl)cn2)c1COc1ccc(C(=O)NC2CCOCC2)nn1 [RE-B, 6-((3-(5-chloro-2-pyridyl)-5-methyl-isoxazol-4-yl)methoxy)-N-tetrahydropyran-4-yl-pyridazine-3-carboxamide, reference compound] | – | – | Efficacy (GABA) % (h-GABA-A α5β3γ2 [2]; [4]): +3%
12 | Cc1ccc(-c2noc(C)c2COc2cnc(C(=O)NC3COC3)cn2)cn1 [Example 77, 5-((5-methyl-3-(6-methyl-3-pyridyl)isoxazol-4-yl)methoxy)-N-(oxetan-3-yl)pyrazine-2-carboxamide] | – | – | Efficacy (GABA) % (h-GABA-A α5β3γ2 [2]; [6]): 11%
13 | CCC[C@@H](CO)NC(=O)c1cnc(OCc2c(-c3ccc(C)nc3)noc2C)cn1 [Example 14, N-((1S)-1-(hydroxymethyl)butyl)-5-((5-methyl-3-(6-methyl-3-pyridyl)isoxazol-4-yl)methoxy)pyrazine-2-carboxamide] | – | 2.6 | –
14 | Cc1ccc(-c2noc(C)c2COc2ccc(C(=O)NC(C)(C)CCS(C)(=O)=O)nn2)cn1 [Example 80, 6-((5-methyl-3-(6-methylpyridin-3-yl)isoxazol-4-yl)methoxy)-N-(2-methyl-4-(methylsulfonyl)butan-2-yl)pyridazine-3-carboxamide] | 13.2 | – | –

Continued, in another order:

Row | Ki (h-GABA-A α5β3γ2 [1]) [nM] | Fold increase h-GABA-A α5β3γ2 oocyte (h-GABA-A α5β3γ2 [2]; [3]) | SMILES | also measured
15 | 17.4 | – | Cc1ccc(-c2noc(C)c2COc2ccc(C(=O)NC3(C)CCOC3)nn2)cn1 (racemic) [Example 75, (RS)-6-((5-methyl-3-(6-methylpyridin-3-yl)isoxazol-4-yl)methoxy)-N-(3-methyltetrahydrofuran-3-yl)pyridazine-3-carboxamide] | –
16 | 5.8 | – | Cc1ccc(-c2noc(C)c2COc2ccc(C(=O)NC3CCS(=O)(=O)C3)nn2)cn1 (racemic) [Example 36, (RS)—N-(1,1-dioxothiolan-3-yl)-6-((5-methyl-3-(6-methylpyridin-3-yl)-1,2-oxazol-4-yl)methoxy)pyridazine-3-carboxamide] | –
17 | 14.8 | – | Cc1ccc(-c2noc(C)c2COc2ccc(C(=O)NC3CCCOCC3)nn2)cn1 (racemic) [Example 187, (RS)-6-((5-methyl-3-(6-methylpyridin-3-yl)isoxazol-4-yl)methoxy)-N-(oxepan-4-yl)pyridazine-3-carboxamide] | –
18 | 16.1 | – | Cc1ccc(-c2noc(C)c2COc2ccc(C(=O)NC3CCOC(C)(C)C3)nn2)cn1 (racemic) [Example 58, (RS)—N-(2,2-dimethyltetrahydropyran-4-yl)-6-((5-methyl-3-(6-methylpyridin-3-yl)isoxazol-4-yl)methoxy)pyridazine-3-carboxamide] | –
19 | – | 1.5 | Cc1ccc(-c2noc(C)c2COc2ccc(C(=O)N[C@H]3CCOC[C@@H]3O)cn2)cn1 [Example 127, N-((3R,4S)-3-hydroxytetrahydropyran-4-yl)-6-((5-methyl-3-(6-methyl-3-pyridyl)isoxazol-4-yl)methoxy)pyridine-3-carboxamide] | –
20 | – | 1.6 | Cc1ccc(-c2noc(C)c2COc2ccc(C(=O)N[C@H]3C[C@H](OCC(F)F)C3)nn2)cn1 [Example 170, trans-N-3-((2,2-difluoroethoxy)cyclobutyl)-6-((5-methyl-3-(6-methylpyridin-3-yl)isoxazol-4-yl)methoxy)pyridazine-3-carboxamide] | –
21 | 13.2 | – | Cc1ccc(-c2noc(C)c2COc2ccc(C(=O)NC(C)C(F)(F)F)nn2)cn1 (racemic) [Example 34, (RS)-6-((5-methyl-3-(6-methylpyridin-3-yl)isoxazol-4-yl)methoxy)-N-(1,1,1-trifluoropropan-2-yl)pyridazine-3-carboxamide] | –
22 | – | 1.7 | Cc1ccc(-c2noc(C)c2COc2ccc(C(=O)NCC3(C)COC3)nn2)cn1 [Example 49, 6-((5-methyl-3-(6-methylpyridin-3-yl)isoxazol-4-yl)methoxy)-N-((3-methyloxetan-3-yl)methyl)pyridazine-3-carboxamide] | –
23 | – | 1.8 | Cc1ccc(-c2noc(C)c2COc2ccc(C(=O)NC3CC3)nn2)cn1 [Example 26, N-cyclopropyl-6-((5-methyl-3-(6-methylpyridin-3-yl)isoxazol-4-yl)methoxy)pyridazine-3-carboxamide] | –
24 | 5.3 | – | Cc1ccc(-c2noc(C)c2COc2ccc(C(=O)N[C@@H]3CC[C@@H](O)C3)nn2)cn1 (racemic) [Example 152, N-((1RS,3RS)-3-hydroxycyclopentyl)-6-((5-methyl-3-(6-methylpyridin-3-yl)isoxazol-4-yl)methoxy)pyridazine-3-carboxamide] | –
25 | 6.6 | – | Cc1ccc(-c2noc(C)c2COc2ccc(C(=O)NC3CCOC3)nn2)cn1 (racemic) [Example 45, (RS)-6-((5-methyl-3-(6-methylpyridin-3-yl)isoxazol-4-yl)methoxy)-N-(tetrahydrofuran-3-yl)pyridazine-3-carboxamide] | –
